We go through one compound from US10328092B2, “Methods and compositions for treatment of drug addiction” (The Royal Institution for the Advancement of Learning / …, priority 2015, dated 2019).

Assay [1] deals with primary rat astrocyte cultures. Particulars: dopamine 0.1 μm with ascorbic acid, 3 hours. Here is the method:
For tissue, total RNA from the ventral striatum was extracted and isolated by RNAqueous-4PCR total RNA isolation kit (Ambion, AM1914), according to manufacturer's instructions. For microglia and astrocyte cultures, total RNA was isolated by RNeasy kit (Qiagen, 74136). For all sample types, 0.5 μg of total RNA was used for cDNA synthesis with Quantitect Reverse Transcription Kit (Qiagen, 205313), and quantitative RT-PCR was performed with Fast SYBR-Green Master Mix (Applied Biosystems) detected by StepOne Plus RealTime PCR system (Applied Biosystems). The sequences of qPCR primers used for mRNA quantification in this study were obtained from Integrated DNA Technologies, and are as follows: mouse TNFα forward, […] (SEQ ID NO: 1) [200 nM]; mouse TNFα reverse, […] (SEQ ID NO: 2) [200 nM]; mouse GAPDH forward, […] (SEQ ID NO: 3) [300 nM]; mouse GAPDH reverse, […] (SEQ ID NO: 4) [300 nM]; rat TNFα forward, […] (SEQ ID NO: 1) [600 nM]; rat TNFα reverse, […] […] After 40 cycles, the Ct values were determined. To normalize the samples, ΔCt between TNFα and GADPH or cyclophilin Ct values was calculated. The x-fold difference in expression between the different treatments was then determined by subtraction of the ΔCt values and termed ΔΔCt. Finally, the total change was calculated as 2-ΔΔct and the relative amount compared with control samples was deducted. […]

The subject of assay [2] is primary rat microglia cultures. Nature of the assay: TNFα mRNA in primary rat microglia cultures. The assay is classed as cell-based. As to the method:
For tissue, total RNA from the ventral striatum was extracted and isolated by RNAqueous-4PCR total RNA isolation kit (Ambion, AM1914), according to manufacturer's instructions. For microglia and astrocyte cultures, total RNA was isolated by RNeasy kit (Qiagen, 74136). For all sample types, 0.5 μg of total RNA was used for cDNA synthesis with Quantitect Reverse Transcription Kit (Qiagen, 205313), and quantitative RT-PCR was performed with Fast SYBR-Green Master Mix (Applied Biosystems) detected by StepOne Plus RealTime PCR system (Applied Biosystems). The sequences of qPCR primers used for mRNA quantification in this study were obtained from Integrated DNA Technologies, and are as follows: mouse TNFα forward, […] (SEQ ID NO: 1) [200 nM]; mouse TNFα reverse, […] (SEQ ID NO: 2) [200 nM]; mouse GAPDH forward, […] (SEQ ID NO: 3) [300 nM]; mouse GAPDH reverse, […] (SEQ ID NO: 4) [300 nM]; rat TNFα forward, […] (SEQ ID NO: 1) [600 nM]; rat TNFα reverse, […] (SEQ ID NO: 5) [600 nM]; rat cyclophilin forward, […] (SEQ ID NO: 6) [500 nM]; rat cyclophilin reverse, […] (SEQ ID NO: 7) [500 nM]. After 40 cycles, the Ct values were determined. To normalize the samples, ΔCt between TNFα and GADPH or cyclophilin Ct values was calculated. The x-fold difference in expression between the different treatments was then determined by subtraction of the ΔCt values and termed ΔΔCt. Finally, the total change was calculated as 2-ΔΔct and the relative amount compared with control samples was deducted.
Mixed microglia-astrocyte primary cultures were prepared from the striatum of postnatal rats (day 0), essentially as described (Beattie et al., 2002). Briefly, tissue was dissociated by […], and cells were seeded in glia media (MEM containing 5% FBS, 1.5% high sucrose MEM and 0.1% glutamax) on culture flasks (Corning) coated with poly-D lysine (Sigma) and placed in a humidified incubator at 37 C with 5% CO2. Neurons were removed by mechanical disruption and the medium was changed at day 1, and every 5-7 days after. […]

The subject of assay [3] is adult microglial cells. Description: TNFα mRNA in cultured adult mouse microglia. The assay is classed as cell-based. The following applies: dopamine 0.1 μm, 3 hours; not significant p=0.057. Here is the method: (SEQ ID NO: 1) [200 nM]; mouse TNFα reverse, […] (SEQ ID NO: 2) [200 nM]; mouse GAPDH forward, […] (SEQ ID NO: 3) [300 nM]; mouse GAPDH reverse, […] (SEQ ID NO: 4) [300 nM]; rat TNFα forward, […] (SEQ ID NO: 1) [600 nM]; rat TNFα reverse, […] (SEQ ID NO: 5) [600 nM]; rat cyclophilin forward, […] (SEQ ID NO: 6) [500 nM]; rat cyclophilin reverse, […] (SEQ ID NO: 7) [500 nM]. After 40 cycles, the Ct values were determined.
Adult male C57BL/6 mice (8-12 weeks) underwent cardiac perfusion with Hank's Balanced Salt Solution (HBSS) and whole brains were removed. Cortices and striata were dissected, cut in to small pieces and subjected to enzymatic digestion with the Neural Tissue Dissociation Kit (P) (Miltenyi Biotech, US cat no. 130-092-628), as per manufactures instructions. Tissue was homogenised and resuspended in 35% isotonic Percoll, overlayed with HBSS and spun at 400 g for 45 mins for the removal of myelin. Pure populations of microglial cells were obtained through magnetic bead cell sorting using CD11b microbeads (Miltenyi, cat no. 130-093-634). Aliquots from positive and negative bead selected fractions were removed for cell staining to assess cell purity. […] Cells were acquired using a BD FACS Canto II and analyzed using BD FACSDiva software. […]

Take `Cl.NCCc1ccc(O)c(O)c1` [dopamine, dopamine hydrochloride]: in assay [1], the “TNFα production in astrocytes” value was “does not alter”. Also, the “TNFα mRNA in microglia cultures” value in assay [2] is on record as “significantly increased”. Moreover, the “TNFα mRNA, cultured adult microglia” value in assay [3] is on record as 160 % of control.
